Assay results: patent publication US8152784B2, “Method for treating or preventing steroid-induced glaucoma” (Wisconsin Alumni Research Foundation, priority 2005, dated 2012)

Legend:
[1] = test system: trabecular meshwork cells; assay: CLAN formation in trabecular meshwork cells on fibronectin-coated cover slips with Src kinase inhibitor; format: cell-based, human; conditions: PP2 20 μM
Procedure: (§1) Cultured, diploid human trabecular meshwork cells obtained from trabecular meshwork explants were plated on coverslips coated with extracellular matrix materials, including poly-L-lysine (20 nM in PBS), fibronectin (100 nM in PBS), type I collagen (20 nM in PBS), type IV collagen (20 nM in PBS), vitronectin (20 nM in PBS), vascular cell adhesion molecule (VCAM-1, an α4β1 ligand; 20 nM in PBS), fibronectin III7-10 domain (an α5β1 ligand; 20 nM in PBS), fibronectin III12-14 domain (20 nM in PBS), or fibronectin IICS domains (20 nM in PBS), or activating antibodies to β1 (anti-B3B11; Chemicon Int'l, Inc.; Temecula, Calif.; 10 μg/ml), β3 (anti-AP-5; The Blood Center of Southeastern Wisconsin; Milwaukee, Wis.; 8 μg/ml), or α2β1 (anti-JBS2; Chemicon Int'l, Inc.; 6 μg/ml) integrins. In experiments using antibodies as substrates, coverslips were pre-coated with 1:100 unconjugated goat anti-mouse IgG (Jackson Immunoresearch, Inc.; West Grove, Pa.). In some instances, anti-β3 antibodies were used as soluble ligands. […]
CLAN formation was assessed by immunofluorescence microscopy. […] Anti-F-actin was detected using either Alexa 488 conjugated goat anti-rabbit IgG or Alexa 488 conjugated donkey anti-rabbit IgG. All monoclonal antibodies were detected using Alexa 546 conjugated goat anti-mouse IgG. […]

[2] = test system: human trabecular meshwork cells; assay: CLAN formation in cultured human trabecular meshwork cells spread on coated coverslips, immunofluorescence microscopy; format: cell-based; conditions: adsorbed substrate on coverslip, cells spread three hours
Procedure: as §1
CLAN formation was assessed by immunofluorescence microscopy. […] Anti-F-actin was detected using either Alexa 488 conjugated goat anti-rabbit IgG or Alexa 488 conjugated donkey anti-rabbit IgG. All monoclonal antibodies were detected using Alexa 546 conjugated goat anti-mouse IgG.

| Compound | CLAN formation, % of cells ([1]; absence of soluble anti-β3, control cells 10%) | CLAN formation, % of cells ([1]; presence of soluble anti-β3, control cells 30%) | CLAN formation, % of the cells [2] |
| --- | --- | --- | --- |
| CC(C)(C)n1nc(-c2ccc(Cl)cc2)c2c(N)ncnc21 [PP2] | 0% | 1% | – |
| fibronectin | – | – | 13% |
